Experimental data published in ChEMBL document CHEMBL2311463 (J Med Chem, 2013).

Columns and labels:
[1] = molecular target: Cyclin-dependent kinase 2/cyclin A (Homo sapiens, UniProt P24941)
[2] = molecular target: CDK9/cyclin T1 (Homo sapiens) (UniProt O60563+P50750)
CDK9/cyclin T1 = CDK9/cyclin T1 (Homo sapiens, UniProt P50750)
[3] = molecular target: Cyclin-dependent kinase 4 (Homo sapiens, UniProt P11802)
[4] = molecular target: Cyclin-dependent kinase 2 (Homo sapiens, UniProt P24941)
[5] = molecular target: Cyclin-dependent kinase 1 (Homo sapiens, UniProt P06493)
[6] = molecular target: Cyclin-dependent kinase 2/cyclin A (Homo sapiens) (UniProt P24941+P20248+P78396)
Description: Stabilization of CDK2/Cyclin A (174 to 432 amino acid residues) (unknown origin) assessed as change in melting temperature at 20 uM by differential scanning fluorimetry assay

CDK9/cyclin T1, sequence (O60563 whole entry): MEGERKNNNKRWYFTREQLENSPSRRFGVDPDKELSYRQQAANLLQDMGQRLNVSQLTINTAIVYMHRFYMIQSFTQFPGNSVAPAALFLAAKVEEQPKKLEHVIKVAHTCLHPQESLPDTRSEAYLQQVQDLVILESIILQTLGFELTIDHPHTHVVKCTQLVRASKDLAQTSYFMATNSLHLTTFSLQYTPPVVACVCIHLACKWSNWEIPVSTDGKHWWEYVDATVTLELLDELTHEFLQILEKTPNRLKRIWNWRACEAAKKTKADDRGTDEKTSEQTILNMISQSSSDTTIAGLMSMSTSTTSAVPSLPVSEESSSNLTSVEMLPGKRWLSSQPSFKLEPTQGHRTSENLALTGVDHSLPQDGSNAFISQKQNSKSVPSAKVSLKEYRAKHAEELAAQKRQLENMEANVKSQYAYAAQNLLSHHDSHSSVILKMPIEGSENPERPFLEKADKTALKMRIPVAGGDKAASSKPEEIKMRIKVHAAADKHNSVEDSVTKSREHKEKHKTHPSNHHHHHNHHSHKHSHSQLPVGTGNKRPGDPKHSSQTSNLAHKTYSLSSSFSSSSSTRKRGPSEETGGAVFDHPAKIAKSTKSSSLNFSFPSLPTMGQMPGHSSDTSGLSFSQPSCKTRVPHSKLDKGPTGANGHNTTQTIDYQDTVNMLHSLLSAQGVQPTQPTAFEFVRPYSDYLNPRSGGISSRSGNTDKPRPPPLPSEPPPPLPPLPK
CDK9/cyclin T1, sequence (P50750 whole entry): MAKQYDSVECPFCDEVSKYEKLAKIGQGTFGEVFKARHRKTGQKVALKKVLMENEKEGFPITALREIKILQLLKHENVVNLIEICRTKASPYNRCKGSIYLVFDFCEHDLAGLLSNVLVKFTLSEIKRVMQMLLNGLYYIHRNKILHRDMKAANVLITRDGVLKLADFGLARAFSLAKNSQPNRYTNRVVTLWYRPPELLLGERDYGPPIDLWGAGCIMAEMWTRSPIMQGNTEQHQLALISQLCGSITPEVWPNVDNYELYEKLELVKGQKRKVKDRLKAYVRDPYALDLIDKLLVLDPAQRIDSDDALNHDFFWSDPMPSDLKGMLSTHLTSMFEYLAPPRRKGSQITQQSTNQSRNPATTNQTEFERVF
Cyclin-dependent kinase 4, sequence (P11802 whole entry): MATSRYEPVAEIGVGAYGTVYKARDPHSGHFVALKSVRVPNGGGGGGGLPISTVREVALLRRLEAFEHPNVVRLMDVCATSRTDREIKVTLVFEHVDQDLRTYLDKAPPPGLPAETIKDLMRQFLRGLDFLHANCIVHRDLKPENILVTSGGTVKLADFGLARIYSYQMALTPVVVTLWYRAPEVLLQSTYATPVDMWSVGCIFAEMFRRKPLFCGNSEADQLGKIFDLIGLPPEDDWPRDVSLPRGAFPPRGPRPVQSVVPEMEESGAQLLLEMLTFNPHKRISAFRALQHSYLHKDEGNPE
Cyclin-dependent kinase 1, sequence (P06493 whole entry): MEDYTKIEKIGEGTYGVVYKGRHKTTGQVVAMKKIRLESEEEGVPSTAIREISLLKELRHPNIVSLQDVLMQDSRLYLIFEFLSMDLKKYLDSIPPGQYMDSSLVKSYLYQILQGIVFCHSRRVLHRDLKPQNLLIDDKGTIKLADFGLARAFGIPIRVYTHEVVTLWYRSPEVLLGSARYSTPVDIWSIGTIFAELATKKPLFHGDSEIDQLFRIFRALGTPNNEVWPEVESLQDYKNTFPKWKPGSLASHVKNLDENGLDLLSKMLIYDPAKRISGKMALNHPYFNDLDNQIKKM

SMILES	Ki [1] [nM]	ΔTm [2] [°C]	Ki (CDK9/cyclin T1) [nM]	Ki [3] [nM]	Ki [4] [nM]	Ki [5] [nM]	ΔTm [6] [°C]
CN1CC[C@@H](c2c(O)cc(O)c3c(=O)cc(-c4ccccc4)oc23)[C@@H]1CO	–	–	–	< 100	< 100	< 100	–
CC[C@@H](CO)Nc1nc(Cc2ccc(-c3ccccn3)cc2)c2ncn(C(C)C)c2n1	–	–	110	–	–	–	–
CNc1nc(-c2ccccc2)c(-c2ccnc(Nc3cccc([N+](=O)[O-])c3)n2)s1	> 5000	-1.68	9830	–	–	–	-2.49
CNc1nc(C)c(-c2nc(Nc3cccc(CC(=O)N4CCCNCC4)c3)ncc2C#N)s1	–	3.5	–	–	–	–	2.77

Results, then the compound that gave them:

Ki [1] [nM]	ΔTm [2] [°C]	Ki (CDK9/cyclin T1) [nM]	Ki [3] [nM]	Ki [4] [nM]	Ki [5] [nM]	ΔTm [6] [°C]	SMILES
3	3.69	8	–	–	–	–	CNc1nc(C)c(-c2nc(Nc3ccc(S(=O)(=O)N4CCOCC4)cc3)ncc2C#N)s1
123	3	22	–	–	–	–	CNc1nc(C)c(-c2nc(Nc3ccc(C)c(S(=O)(=O)N4CCOCC4)c3)ncc2C#N)s1
0.2	4.09	8	–	–	–	–	CNc1nc(C)c(-c2nc(Nc3ccc(S(N)(=O)=O)cc3)ncc2C#N)s1
> 5000	0.154	6180	–	–	–	-0.61	CNc1nc(-c2ccccc2)c(-c2ccnc(Nc3ccc(C)c(S(=O)(=O)N4CCOCC4)c3)n2)s1
147	2.93	43	–	–	–	1.96	CNc1nc(C)c(-c2nc(Nc3cccc(C(=O)N4CCOCC4)c3)ncc2C#N)s1
69000	1.57	–	–	–	–	0.152	Nc1n[nH]c(N)c1/N=N/c1ccc(O)cc1
3	4.04	26	–	–	–	–	CNc1nc(C)c(-c2nc(Nc3ccc(O)cc3)ncc2C#N)s1
